According to US12209112B2, “Methods of preventing or treating diseases, conditions, or disorders associated with chemotherapy” (The Chinese University of Hong Kong, priority 2022, dated 2025):

Key:
hESC-CMs = assay: α-actinin immunostaining for sarcomeric integrity; assay type: cell-based, human; settings: hESC-CMs; agent only, no doxorubicin
Description: hESC-CMs were permeabilized using 0.1% Triton X-100 (Thermo Fisher Scientific, USA). After permeabilizing for 15 minutes, cells were washed three times in PBS, and further permeabilization was blocked by incubating cells in PBS with 10% FBS (Hyclone, USA) for 1 hour at room temperature. Cells were incubated with the primary anti-actinin antibody (1:400) (Abcam, UK) and diluted in PBS with 10% FBS overnight. Cells were then washed three times with PBS and incubated with a goat anti-mouse IgG1 secondary antibody (1:1000 diluted in PBS with 10% FBS) (Thermo Fisher Scientific, USA) for 1 hour at room temperature. Finally, cells were washed twice with PBS and mounted using ibidi mounting medium with DAPI (Ibidi, Germany). Microscopic images were acquired using the DMi8s Research Inverted Thunder Imager Live Cell System (Leica, Germany) at 20×, 40×, and 100× magnification.

C57BL/6J male mice [1] = assay: TUNEL staining of mouse myocardium (cardiomyocyte apoptosis); assay type: in vivo; settings: pretreatment before doxorubicin
Description: (§1) Recombinant human GDF15/MIC-1 protein (CHO-derived) was purchased from PeproTech Inc. (Cranbury, USA) and described in Example 1. […] For in vitro studies, solid lyophilized powder of these two drugs were solubilized at the recommended concentrations in sterile water, and separate aliquots were made and frozen until thawing prior to addition to cell cultures. For in vivo studies, all agents were dissolved in […] normal saline according to the required concentrations (doxorubicin, 5 mg/kg; GDF15, 0.5 mg/kg; dexrazoxane, […]), and the final volume of each intraperitoneal injection was 100 μl. The recommended dose ratio of dexrazoxane to doxorubicin was 10 to 1. In the following examples, 5 mg/kg of doxorubicin was used which correspond to 50 mg/kg of dexrazoxane. The FDA recommends that dexrazoxane be injected within 0.5 hour prior to doxorubicin infusion in individuals. This was followed in the same manner when applying to the test animals.
(§2) To induce cardiotoxicity in the mouse, four weekly intraperitoneal injections of doxorubicin at 5 mg/kg were administered. After one dose of doxorubicin at 5-6 mg/kg in a mouse, the level of exposure has been estimated to be similar to that of a human individual being given a standard dose of doxorubicin at approximately 60 mg/m^2. […]

C57BL/6J male mice [2] = assay type: in vivo, mouse; settings: mice; pretreatment before doxorubicin
Description: as §1
To induce cardiotoxicity in the mouse, four weekly intraperitoneal injections of doxorubicin at 5 mg/kg were administered. After one dose of doxorubicin at 5-6 mg/kg in a mouse, the level of exposure has been estimated to be similar to that of a human individual being given a standard dose of doxorubicin at approximately 60 mg/m^2. Previous studies have shown that mice injected with doxorubicin once a week at 5 mg/kg for four weeks developed cardiotoxicity, as evidenced by decreased ventricular ejection fraction, cardiomyocyte apoptosis, histopathological changes consistent with doxorubicin-induced myocardial damage, and increased mortality rate, compared with the control group.
The hearts of mice were collected after sacrifice and fixed in 4% paraformaldehyde overnight, followed by paraffin embedding. Afterwards the hearts were cut into 4 μm thick slices. Sections were deparaffinized and rehydrated using sequential immersion in 100% alcohol, 95% alcohol and 70% alcohol for 15 minutes each. […]

C57BL/6J male mice [3] = assay type: in vivo, mouse; settings: mice; pretreatment before doxorubicin, versus doxorubicin only
Description: as §1, §2
The image processing and analysis software, ImageJ version 1.53K, was used for evaluation of histopathology from mouse experiments. For Masson's trichrome staining, the acquired images were converted from color to grayscale using ImageJ, the blue-stained collagen were segmented (separated) using thresholding, and the threshold areas in a representative microscopic field were quantified. […] Cells containing brown staining (TUNEL-positive cells) were counted in a representative microscopic field for each mouse in each group.

C57BL/6J male mice [4] = assay: Noninvasive blood pressure in mouse doxorubicin cardiotoxicity model; assay type: in vivo; settings: for Day 28 DBP / Day 28 SBP: after doxorubicin 5 mg/kg intraperitoneal once weekly for four weeks (Dox + groups); for Day 28 DBP / Day 28 SBP / Day 0 DBP / Day 0 SBP: n = 4 per group; for Day 0 DBP / Day 0 SBP: before doxorubicin administration
Source text: Recombinant human GDF15/MIC-1 protein (CHO-derived) was purchased from PeproTech Inc. (Cranbury, USA) and described in Example 1. […] PubChem identifier number 71384) were purchased from Abcam (Cambridge, UK). For in vitro studies, solid lyophilized powder of these two drugs were solubilized at the recommended concentrations in sterile water, and separate aliquots were made and frozen until thawing prior to addition to cell cultures. […] The recommended dose ratio of dexrazoxane to doxorubicin was 10 to 1. In the following examples, 5 mg/kg of doxorubicin was used which correspond to 50 mg/kg of dexrazoxane. The FDA recommends that dexrazoxane be injected within 0.5 hour prior to doxorubicin infusion in individuals. This was followed in the same manner when applying to the test animals. Ten- to twelve-week old C57BL/6J male mice were purchased from the Laboratory Animal Services Centre of CUHK. They were maintained in specific pathogen-free facility of the CUHK Laboratory Animal Services Centre Research Unit at Prince of Wales Hospital with free access to food and water and maintained in a light/night cycle of 12 hours/12 hours. All mice were fed a standard diet. Blood pressure of animals was measured using the noninvasive CODA® High Throughput System (Torrington, USA) in accordance with the manufacturer's instructions. Measurement platform was prewarmed and maintained at 33-35° C. O-cuffs and VPR-cuffs were used as instructed. Blood pressure of each mouse was measured for at least three cycles. Mice were released and returned to their cages immediately after measurement. Blood pressure was measured twice, once at the beginning of the experiment and once before sacrifice. To induce cardiotoxicity in the mouse, four weekly intraperitoneal injections of doxorubicin at 5 mg/kg were administered. After one dose of doxorubicin at 5-6 mg/kg in a mouse, the level of exposure has been estimated to be similar to that of a human individual being given a standard dose of doxorubicin at approximately 60 mg/m^2.

In the case of `C[C@@H](CN1CC(=O)NC(=O)C1)N1CC(=O)NC(=O)C1.Cl` [Dex, 4,4′-[(1S)-1-Methyl-1,2-ethanediyl]bis-2,6-piperazinedione hydrochloride, reference compound], the “sarcomere structure (α-actinin immunostaining)” value (hESC-CMs) is reported as “well-organized, striated sarcomeres”, the “cardiomyocyte death by apoptosis (TUNEL staining)” value (C57BL/6J male mice [1]) is reported as “reduced extent of cardiomyocyte death by apoptosis” and the “myocardial histopathology (hematoxylin and eosin)” value (C57BL/6J male mice [2]) is reported as “similarly improved”. For the same molecule, the “cardiac fibrosis (Masson's trichrome)” value (C57BL/6J male mice [3]) was “visually and quantitatively reduced”, the “Day 28 DBP” value (C57BL/6J male mice [4]) was 84 ± 15 mmHg and the “Day 28 SBP” value (C57BL/6J male mice [4]) was 108 ± 13 mmHg. For the same molecule, the “Day 0 DBP” value (C57BL/6J male mice [4]) was 78 ± 26 mmHg and the “Day 0 SBP” value (C57BL/6J male mice [4]) was 114 ± 14 mmHg.

B1: GDF15 + Dox: mice given recombinant human GDF15 pretreatment followed by doxorubicin (protein, UniProt Q99988 195-308, looked up)
Growth/differentiation factor …: ARARNGDHCPLGPGRCCRLHTVRASLEDLGWADWVLSPREVQVTMCIGACPSQFRAANMHAQIKTSLHRLKPDTVPAPCCVPASYNPMVLIQKTDTGVSLQTYDDLLAKDCHCI
modifications: given with doxorubicin
With B1 the “systolic and diastolic blood pressures compared with Dex+Dox group” value (C57BL/6J male mice [4]; Day 28) was “lower than that of Dex+Dox treatment group”, the “Day 28 DBP” value (C57BL/6J male mice [4]) was 85 ± 13 mmHg and the “Day 28 SBP” value (C57BL/6J male mice [4]) was 111 ± 15 mmHg. For the same molecule, the “Day 0 DBP” value (C57BL/6J male mice [4]) was 76 ± 25 mmHg and the “Day 0 SBP” value (C57BL/6J male mice [4]) was 108 ± 27 mmHg.
